Tests used:
[1] = molecular target: T1, Human placental aromatase (Homo sapiens, UniProt P11511); assay: In vitro human placental aromatase inhibiting activity; type: biochemical; conditions: substrate androstenedione 4 μM, 37° C., 1 hour
T1 construct: the pellet thus obtained was used as a microsome fraction; from tissue; host or cells: human placenta, microsome fraction
T1 sequence (P11511 1-503): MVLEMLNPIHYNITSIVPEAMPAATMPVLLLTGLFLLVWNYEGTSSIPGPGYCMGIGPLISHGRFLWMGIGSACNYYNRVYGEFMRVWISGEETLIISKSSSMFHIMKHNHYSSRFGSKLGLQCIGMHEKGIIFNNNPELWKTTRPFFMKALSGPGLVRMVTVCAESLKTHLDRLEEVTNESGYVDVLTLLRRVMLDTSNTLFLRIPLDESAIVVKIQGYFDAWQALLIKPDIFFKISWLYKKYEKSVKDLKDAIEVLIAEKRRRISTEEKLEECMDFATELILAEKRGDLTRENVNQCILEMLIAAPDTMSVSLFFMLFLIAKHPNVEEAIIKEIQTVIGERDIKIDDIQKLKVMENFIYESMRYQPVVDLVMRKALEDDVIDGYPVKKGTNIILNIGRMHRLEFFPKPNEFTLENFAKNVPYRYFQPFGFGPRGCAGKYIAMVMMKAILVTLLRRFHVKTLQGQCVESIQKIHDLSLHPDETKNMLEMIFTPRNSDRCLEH
Protocol: Preparation of human placental microsome:
The method of F. A. Thompson et al. [Journal of Biological Chemistry, 249, 5364 (1974)]was partly modified. Thus, a placenta was washed with cooled 0.15 M KCl and, after removal of adhering membranes and great blood vessels, minced to sufficiently small pieces by means of scissors. To the minced tissue was added cold 0.02 M phosphate buffer (pH 7.4) containing 0.25 M sucrose in an amount of 1 ml per 1 g of tissue, the mixture was homogenized with a Polytron homogenizer (30 seconds, three times, in ice) and then centrifuged at 800×g for 10 minutes, the supernatant was subjected to centrifugation at 20,000×g for 30 minutes, followed by further centrifugation at 148,000×g for 45 minutes, and the pellet thus obtained was used as a microsome fraction. The microsome obtained was suspended in the same phosphate buffer as mentioned above in a concentration corresponding to 10 g of wet placenta per ml. The suspension was stored at -80° C. and, just prior to use, diluted 5 to 6 times.
Aromatase activity measurement and inhibitory activity:
The method of F. A. Thompson et al. (vide supra) was partly modified as follows:
A reaction solution ([…]) containing 4 μM 4-androstene-3,17-dione, 140,000 dpm, 1,2[^3 H]-androstenedione, 550 μM NADPH, 20 μl of the above microsome and 5 μl of buffer or 5 μl of an inhibitor-containing solution was incubated at 37° C. for 1 hour. In this measurement system, aromatization of androstenedione gives [^3 H]--H2 O. Therefore, this reaction mixture was extracted with 0.5 ml of chloroform for separation, the aqueous layer obtained was treated with 0.25 ml of 5% active carbon for removal of free steriods and then subjected to low speed centrifugation. A scintillator (3 ml) was added to 0.2 ml of the supernatant, and the radioactivity was measured by means of a liquid scintillation counter. The percent inhibition (%) was determined by comparing the result thus obtained with the result for a control sample as obtained without adding any inhibitor. The activity was expressed in terms of IC50 (μg/ml), namely the inhibitor concentration required for 50% inhibition of the enzyme activity at the substrate (androstenedione) concentration of 4 μM.

estrogen synthesis = assay: Estrogen synthesis inhibition in rats (PMSG-stimulated); type: in vivo, young SD rats; conditions: 4 days, Mean ± SD
Protocol: Groups of five young SD rats ([…], 19 days old) were used. Test groups were administered subcutaneously with the test compounds suspended in 0.2% gum arabic-containing physiological saline in a dose of 25 mg/kg or 50 mg/kg at 24-hour intervals for consecutive 4 days. Non-test groups (control groups […]) were administered with 0.2 ml of 0.2% gum arabic-containing physiological saline. On the third day after initiation of the test, a single dose of pregnant mare serum gonadotropin (PMSG) was administered subcutaneously in a dose of 10 U/rat to the test groups and to the control group 2, following the administration of the test compounds. […] The plasma samples thus obtained were subjected to plasma estradiol-17B level determination by radioimmunoassay. The uterus and ovaries were excised from each rat and, after removal of superfluous connective tissues, weighed. The results thus obtained are shown in Table 2.4-Hydroxyandrostenedione (4-OHA) was used as a reference compound for the pharmacological effect evaluation.
*P < 0.05, **P < 0.02, ***P < 0.01, ****<0.001 against PMSG group

[2] = Test II, 25 mg/kg/day s.c., PMSG control 240.0 ± 34.9
[3] = Test II, 50 mg/kg/day s.c., PMSG control 240.0 ± 34.9
[4] = Test I, 25 mg/kg/day s.c., PMSG control 568.6 ± 69.7
[5] = Test I, 50 mg/kg/day s.c., PMSG control 568.6 ± 69.7

Compound: CC1Cc2cc3c(c(O)c2C(=O)O1)C(=O)C(C1=C(O)C(=O)c2cc4c(c(O)c2C1=O)C(=O)OC(C)C4)=C(N)C3=O (stereo not drawn) [Compound 4, plastatin]
- IC50 [1]: 30.2 µM
- Tissue weight, Ovaries (estrogen synthesis; Test II, 25 mg/kg/day s.c.): 20.8 ± 3.9 mg
- Tissue weight, Uterus (estrogen synthesis; Test II, 25 mg/kg/day s.c.): 97.4 ± 17.8 mg
- Plasma estradiol-17β level (estrogen synthesis; [2]): 156.0 ± 47.8 pg/mL
- Tissue weight, Ovaries (estrogen synthesis; Test II, 50 mg/kg/day s.c.): 26.8 ± 4.8 mg
- Tissue weight, Uterus (estrogen synthesis; Test II, 50 mg/kg/day s.c.): 86.6 ± 9.6 mg
- Plasma estradiol-17β level (estrogen synthesis; [3]): 190.3 ± 19.9 pg/mL

Compound: CCOC1=C(C2=C(OC)C(=O)c3cc4c(c(O)c3C2=O)C(=O)OC(C)C4)C(=O)c2c(cc3c(c2O)C(=O)OC(C)C3)C1=O (stereo not drawn) [Compound 8]
- IC50 [1]: 28.7 µM

Compound: COC1=CC(=O)c2c(cc3c(c2O)C(=O)OC(C)C3)C1=O (stereo not drawn) [Compound 14]
- IC50 [1]: 2.78 µM

Compound: CNC1=C(C2=C(NC)C(=O)c3cc4c(c(O)c3C2=O)C(=O)OC(C)C4)C(=O)c2c(cc3c(c2O)C(=O)OC(C)C3)C1=O (stereo not drawn) [Compound 12]
- IC50 [1]: 10.5 µM

Compound: COC1=C(C2=C(O)C(=O)c3cc4c(c(O)c3C2=O)C(=O)OC(C)C4)C(=O)c2c(cc3c(c2O)C(=O)OC(C)C3)C1=O (stereo not drawn) [Compound 2, monodemethylxanthomegnin]
- IC50 [1]: 24.1 µM
- Tissue weight, Ovaries (estrogen synthesis; Test III, 25 mg/kg/day s.c.): 29.4 ± 7.5 mg
- Tissue weight, Uterus (estrogen synthesis; Test III, 25 mg/kg/day s.c.): 115.7 ± 14.0 mg
- Plasma estradiol-17β level (estrogen synthesis; Test III, 25 mg/kg/day s.c., PMSG control 327.9 ± 126.6): 189.5 ± 123.4 pg/mL
- Tissue weight, Ovaries (estrogen synthesis; Test III, 50 mg/kg/day s.c.): 29.0 ± 2.5 mg
- Tissue weight, Uterus (estrogen synthesis; Test III, 50 mg/kg/day s.c.): 106.3 ± 14.0 mg
- Plasma estradiol-17β level (estrogen synthesis; Test III, 50 mg/kg/day s.c., PMSG control 327.9 ± 126.6): 195.1 ± 79.3 pg/mL

Compound: CNC1=C(C2=C(NC)C(=O)c3cc4c(c(O)c3C2=O)C(=O)OC(C)C4)C(=O)c2c(cc3c(c2O)C(=O)OC(C)C3)C1=O (stereo not drawn) [Compound 11]
- IC50 [1]: 437 µM

Compound: CC1Cc2cc3c(c(O)c2C(=O)O1)C(=O)C(C1=C(N)C(=O)c2cc4c(c(O)c2C1=O)C(=O)OC(C)C4)=C(N)C3=O (stereo not drawn) [Compound 6]
- IC50 [1]: 7.16 µM
- Tissue weight, Ovaries (estrogen synthesis; Test I, 25 mg/kg/day s.c.): 32.2 ± 7.0 mg
- Tissue weight, Uterus (estrogen synthesis; Test I, 25 mg/kg/day s.c.): 102.2 ± 15.5 mg
- Plasma estradiol-17β level (estrogen synthesis; [4]): 353.2 ± 48.4 pg/mL
- Tissue weight, Ovaries (estrogen synthesis; Test I, 50 mg/kg/day s.c.): 32.0 ± 2.9 mg
- Tissue weight, Uterus (estrogen synthesis; Test I, 50 mg/kg/day s.c.): 103.1 ± 11.6 mg
- Plasma estradiol-17β level (estrogen synthesis; [5]): 326.0 ± 115.1 pg/mL

Compound: CCOC1=C(C2=C(OCC)C(=O)c3cc4c(c(O)c3C2=O)C(=O)OC(C)C4)C(=O)c2c(cc3c(c2O)C(=O)OC(C)C3)C1=O (stereo not drawn) [Compound 9]
- IC50 [1]: 40.7 µM

Compound: COC1=C(c2c(OC)cc3cc4c(c(O)c3c2O)C(=O)OC(C)C4)C(=O)c2c(cc3c(c2O)C(=O)OC(C)C3)C1=O (stereo not drawn) [Compound 5, viomellein]
- IC50 [1]: 130 µM
- Body weight gain (estrogen synthesis; Test II, 25 mg/kg/day s.c.): 22.8 ± 1.8 g
- Tissue weight, Ovaries (estrogen synthesis; Test II, 25 mg/kg/day s.c.): 25.3 ± 4.9 mg
- Tissue weight, Uterus (estrogen synthesis; Test II, 25 mg/kg/day s.c.): 104.6 ± 16.6 mg
- Plasma estradiol-17β level (estrogen synthesis; [2]): 60.5 ± 51.1 pg/mL
- Body weight gain (estrogen synthesis; Test II, 50 mg/kg/day s.c.): 22.0 ± 1.2 g
- Tissue weight, Ovaries (estrogen synthesis; Test II, 50 mg/kg/day s.c.): 21.0 ± 2.5 mg
- Tissue weight, Uterus (estrogen synthesis; Test II, 50 mg/kg/day s.c.): 97.7 ± 16.0 mg
- Plasma estradiol-17β level (estrogen synthesis; [3]): 63.8 ± 24.3 pg/mL

Compound: COc1cc2cc3c(c(O)c2c(O)c1C1=C(N)C(=O)c2cc4c(c(O)c2C1=O)C(=O)OC(C)C4)C(=O)OC(C)C3 (stereo not drawn) [Compound 7]
- IC50 [1]: 50.4 µM
- Tissue weight, Ovaries (estrogen synthesis; Test I, 25 mg/kg/day s.c.): 31.2 ± 8.5 mg
- Tissue weight, Uterus (estrogen synthesis; Test I, 25 mg/kg/day s.c.): 94.1 ± 5.5 mg
- Plasma estradiol-17β level (estrogen synthesis; [4]): 323.4 ± 161.2 pg/mL
- Tissue weight, Ovaries (estrogen synthesis; Test I, 50 mg/kg/day s.c.): 27.7 ± 2.7 mg
- Tissue weight, Uterus (estrogen synthesis; Test I, 50 mg/kg/day s.c.): 110.0 ± 14.9 mg
- Plasma estradiol-17β level (estrogen synthesis; [5]): 206.3 ± 54.8 pg/mL

Compound: COC1=C(C2=C(OC)C(=O)c3cc4c(c(OC)c3C2=O)C(=O)OC(C)C4)C(=O)c2c(cc3c(c2OC)C(=O)OC(C)C3)C1=O (stereo not drawn) [Compound 13]
- IC50 [1]: 16.9 µM

Compound: COC1=C(C2=C(OC)C(=O)c3cc4c(c(O)c3C2=O)C(=O)OC(C)C4)C(=O)c2c(cc3c(c2O)C(=O)OC(C)C3)C1=O (stereo not drawn) [Compound 1, xanthomegnin]
- IC50 [1]: 8.18 µM
- Body weight gain (estrogen synthesis; Test I, 25 mg/kg/day s.c.): 22.4 ± 3.1 g
- Tissue weight, Ovaries (estrogen synthesis; Test I, 25 mg/kg/day s.c.): 23.7 ± 3.4 mg
- Tissue weight, Uterus (estrogen synthesis; Test I, 25 mg/kg/day s.c.): 88.9 ± 9.0 mg
- Plasma estradiol-17β level (estrogen synthesis; [4]): 204.7 ± 67.0 pg/mL
- Body weight gain (estrogen synthesis; Test I, 50 mg/kg/day s.c.): 21.4 ± 2.7 g
- Tissue weight, Ovaries (estrogen synthesis; Test I, 50 mg/kg/day s.c.): 25.5 ± 5.5 mg
- Tissue weight, Uterus (estrogen synthesis; Test I, 50 mg/kg/day s.c.): 91.9 ± 14.4 mg
- Plasma estradiol-17β level (estrogen synthesis; [5]): 250.9 ± 161.1 pg/mL

Compound: CCOC1=C(C2=C(O)C(=O)c3cc4c(c(O)c3C2=O)C(=O)OC(C)C4)C(=O)c2c(cc3c(c2O)C(=O)OC(C)C3)C1=O (stereo not drawn) [Compound 10]
- IC50 [1]: 51.2 µM

Compound: CC1Cc2cc3c(c(O)c2C(=O)O1)C(=O)C(C1=C(O)C(=O)c2cc4c(c(O)c2C1=O)C(=O)OC(C)C4)=C(O)C3=O (stereo not drawn) [Compound 3, luteosporin]
- IC50 [1]: 134 µM
- Tissue weight, Ovaries (estrogen synthesis; Test II, 25 mg/kg/day s.c.): 21.3 ± 4.4 mg
- Tissue weight, Uterus (estrogen synthesis; Test II, 25 mg/kg/day s.c.): 93.6 ± 22.4 mg
- Plasma estradiol-17β level (estrogen synthesis; [2]): 124.1 ± 53.3 pg/mL
- Tissue weight, Ovaries (estrogen synthesis; Test II, 50 mg/kg/day s.c.): 22.6 ± 5.4 mg
- Tissue weight, Uterus (estrogen synthesis; Test II, 50 mg/kg/day s.c.): 115.4 ± 30.4 mg
- Plasma estradiol-17β level (estrogen synthesis; [3]): 71.1 ± 23.4 pg/mL

Reference: patent US4963581A, “Naphthopyran derivatives and use thereof” (Takeda Chemical Industries, Ltd., priority 1988, dated 1990)
